Experimental findings from patent publication US20140057881A1, “Composition for the Treatment of Skin Conditions” (priority 2010, published 2014) are described below.

Structures can show the parent of a compound that is named as a salt.

What all share (format): in vivo, human
Common to all, as to conditions: patient history before treatment with Example 1

Assay [1] can be described thus: Case 8: topical treatment of a child.
Assay [2] is described as follows: Case 7: topical treatment of a person. An excerpt: A person with several year history of an itchy rash on the dorsum of their right foot presented (see FIG. 7A). They had previously tried many creams including various antifungal treatments, antibiotics and steroids, Particularly, they had tried Kenacomb™ (Triamcinolone acetonide, nystatin, gramicidin, neomycin); Mometasone Furoate 0.1% (Elocon™); Terbinafine Hydrochloride 1.0% (Lamisil™); Clotrimazole (sold under the trade name Canestan™) and Mupirocin (2% w/w) (sold under the trade name Bactroban™). […] There were areas of broken skin with scattered scab formation.
A diagnosis of chronic dermatitis with lichenification was made and treatment commenced with the composition of Example 1.
In less than one week the rash had disappeared (FIG. 7B).

Assay [3] can be described thus: Case 1: topical treatment of a person.
Description: A diagnosis of periorbital dermatitis with lichenification was made and treatment using the formulation of Example 1 commenced.

On to `CCC(=O)OCC(=O)[C@@]1(OC(=O)CC)[C@@H](C)C[C@H]2[C@@H]3CCC4=CC(=O)C=C[C@]4(C)[C@@]3(F)[C@@H](O)C[C@@]21C` [Betamethasone dipropionate 0.05%, Betamethasone dipropionate], for which the “outcome of previously tried products” value in assay [1] is “no permanent improvement”.

In the case of `Clc1ccccc1C(c1ccccc1)(c1ccccc1)n1ccnc1` [Clotrimazole], the “outcome of previously tried products” value in assay [1] is “no permanent improvement”. In addition, the “outcome of previously tried treatments” value in assay [2] was “None of the treatments gave them any long term results”.

Regarding `CC(=O)OCC(=O)[C@@]1(O)CC[C@H]2[C@@H]3CCC4=CC(=O)CC[C@]4(C)[C@H]3[C@@H](O)C[C@@]21C` [Hydrocosrtisone acetate 1%, Hydrocosrtisone acetate], the “outcome of previously tried products” value in assay [1] is recorded as “no permanent improvement”. The “outcome of previously used treatments” value in assay [3] was “no long term improvement”.

Turning to `CCC(=O)O[C@]1(C(=O)COC(C)=O)CC[C@H]2[C@@H]3C[C@H](C)C4=CC(=O)C=C[C@]4(C)[C@H]3[C@@H](O)C[C@@]21C` [Methylprednisolone aceponate], the “outcome of previously tried products” value in assay [1] was “no permanent improvement”.

As to `C[C@@H]1C[C@H]2[C@@H]3CCC4=CC(=O)C=C[C@]4(C)[C@@]3(Cl)[C@@H](O)C[C@]2(C)[C@@]1(OC(=O)c1ccco1)C(=O)CCl` [Mometasone Furoate 0.1%, Mometasone Furoate], in assay [2], the “outcome of previously tried treatments” value is reported as “None of the treatments gave them any long term results”. For the same molecule, in assay [3], the “outcome of previously used treatments” value was “no long term improvement”.

Consider `C/C(=C\C(=O)OCCCCCCCCC(=O)O)C[C@@H]1OC[C@H](C[C@@H]2O[C@H]2[C@@H](C)[C@H](C)O)[C@@H](O)[C@H]1O` [Mupirocin (2% w/w), Mupirocin], for which, in assay [2], the “outcome of previously tried treatments” value is “None of the treatments gave them any long term results”.

`CN(C/C=C/C#CC(C)(C)C)Cc1cccc2ccccc12` [Terbinafine Hydrochloride 1.0%, Terbinafine Hydrochloride]: in assay [1], the “outcome of previously tried products” value was “no permanent improvement”. In addition, the “outcome of previously tried treatments” value in assay [2] is listed as “None of the treatments gave them any long term results”. Besides, the “outcome of previously used treatments” value in assay [3] is recorded as “no long term improvement”.
